# Measurements as given in patent publication US20120010245A1, “TRANSDERMAL PHARMACEUTICAL COMPOSITIONS COMPRISING A SERM” (BESINS HEALTHCARE LUXEMBOURG SARL, priority 2008, published 2012).
# Several values for one entry are separate records, joined by “and”; a condition that tells them apart may be missing. Equal entries are not always repeated. Structures can show the parent of a compound that is named as a salt. Where two headings read alike, the source gives them in different places.
# Experiments:
# [1] = Stability in analysis medium (cetrimide solution, 3%); type: physicochemical; conditions: 3% cetrimide solution
# [2] = Skin permeation study in side-by-side diffusion cells; type: in vitro ADME, pig
# Experimental: Skin permeation studies were carried out using opaque side-by-side diffusion cells with an effective diffusion area of 0.71 cm^2. […] The receptor solution was a 3% w/v cetrimide solution and allowed sink conditions to be maintained. The receptor phase was magnetically stirred at 100 rpm. Dermatomed abdominal pig skin (750 μm) was used. Skin was allowed to hydrate with isotonic saline solution for 1 h before the experiment was started. […] Experiments were performed under complete occlusion. Post-application, at scheduled times (1, 9, 20 and 24 hours), 1 ml samples were taken from the receiver compartment and replaced with the same volume of fresh, temperature-equilibrated receptor fluid. Samples were filtered through 0.45 μm PVDF membrane filters. The amount of endoxifen in the samples was determined by HPLC using the method described above.
# [3] = Solubility studies (saturated solubility, HPLC); type: physicochemical; conditions: 3% w/v cetrimide solution, aqueous with cosolvent or surfactant or cyclodextrin, thermodynamic from solid, room temperature
# [4] = Solubility studies (saturated solubility, HPLC); type: physicochemical; conditions: for solubility: aqueous with cosolvent or surfactant or cyclodextrin, thermodynamic from solid
# Experimental: The saturated solubilities of endoxifen were determined in a mixture of absolute ethanol/water (70:30, w/w) by shaking an excess amount of drug in 1 ml of the co-solvent system for at least 24 hours at room temperature. The concentrations of the saturated solutions were determined by HPLC analysis after appropriate dilution.
# The saturated solubilities of clomifene citrate were determined in a series of ethanol/water mixtures (40:60, 50:50, 60:40 and 70:30, w/w) by shaking an excess amount of drug in 0.6 ml of the co-solvent system for at least 24 hours at room temperature. […] The concentrations of the saturated solutions were determined by HPLC analysis after appropriate dilution.
# The concentrations of the saturated solutions were determined by HPLC analysis after appropriate dilution.
# The saturated solubilities of toremifene were determined in a series of ethanol/water mixtures (40:60, 50:50, 60:40 and 70:30, w/w) by shaking an excess amount of drug in 1 ml of the co-solvent system for at least 24 hours at room temperature. […] The concentrations of the saturated solutions were determined by HPLC analysis after appropriate dilution.
# [5] = ethanol/water 70:30 w/w co-solvent system, room temperature, read-out: Solubility in ethanol:water (70:30 w/w)
# [6] = 1 hr, saturated solution in 70:30 w/w ethanol-water, donor 30.46 mg/mL
# [7] = 1 h, saturated solution of the drug in 70:30 w/w ethanol-water, — not defined here (Table 2: below LOD)
smiles,measurement,setting,value
"CCC(=C(c1ccc(O)cc1)c1ccc(OCCN(C)C)cc1)c1ccccc1 [4-OH Tamoxifen, 1-[4-(2-N-dimethylaminoethoxy)phenyl]-1-(4-hydroxyphenyl)-2-phenylbut-1-ene]",Stability in analysis medium,[1]; 30 hours,stable
same,"cumulative permeation, single cells","[2]; 9 hr, saturated solution in 70:30 v/v ethanol-water, — not defined here (Table 2: below LOD)",4.1 μg/cm^2 and 3.3 μg/cm^2
same,"cumulative permeation, Average (±SD)","[2]; 20 hr, saturated solution in 70:30 v/v ethanol-water",8.3 ± 4.7 μg/cm^2
same,"cumulative permeation, Average (±SD)","[2]; 24 hr, saturated solution in 70:30 v/v ethanol-water",12.5 ± 6.3 μg/cm^2
same,"cumulative permeation, Average (±SD)","[2]; 24 hr, saturated solution in 70:30 v/v ethanol-water, listed as 4-OH tamoxifen",12.5 μg/cm^2
"CC/C(=C(/c1ccc(OCCN(C)C)cc1)c1cccc(O)c1)c1ccccc1 [droloxifene citrate, 3-[(1E)-1-[4-[2-(Dimethylamino)ethoxy]phenyl]-2-phenyl-1-butenyl]phenol]",Stability in analysis medium,[1]; 24 hours,stable
same,solubility,[3]; n=2,8.9 ± 0.2 mg/mL
same,solubility,[4]; [5],47.5 ± 1.7 mg/mL
same,"cumulative permeation, Mean (±SD)","[2]; 20 h, saturated solution in 70:30 w/w ethanol-water, donor 45.93±[…]",0.62 ± 0.37 μg/cm^2
"CC/C(=C(\c1ccc(O)cc1)c1ccc(OCCNC)cc1)c1ccccc1 [endoxifen, 4-hydroxy-N-desmethyl-tamoxifen]",Stability in analysis medium,[1]; 24 hours,stable
same,solubility,[3],6.26 ± 0.28 mg/mL
same,solubility,[4]; [5],38.7 mg/mL
same,experimental permeation after 24 hours relative to in silico prediction,[2]; 37.29 μg/cm^2 versus about 0.98 μg/cm^2 in 24 hours,40 times higher
same,"cumulative permeation, Mean (±SD)",[2]; [6],— ((—) below the limit of detection (LOD) of 30 ng/ml.)
same,"cumulative permeation, single cells",[2]; [6],— ((—) below the limit of detection (LOD) of 30 ng/ml.)
same,"cumulative permeation, Mean (±SD)","[2]; 9 hr, saturated solution in 70:30 w/w ethanol-water, donor 30.46 mg/mL",0.31 ± 0.36 μg/cm^2
same,"cumulative permeation, Mean (±SD)","[2]; 20 hr, saturated solution in 70:30 w/w ethanol-water, donor 30.46 mg/mL",17.24 ± 15.13 μg/cm^2
CN(C)CCOc1ccc(/C(=C(/CCCl)c2ccccc2)c2ccccc2)cc1 [toremifene],Stability in analysis medium,[1]; 24 hours,stable
same,solubility,"[4]; 3% w/v cetrimide solution, room temperature, read-out: Solubility in 3% cetrimide solution",0.302 ± 0.014 mg/mL
same,"Saturated solubility, Expt 1-3","[4]; EtOH:Water 40:60 w/w, single experiments",0.0754 mg/mL and 0.074 mg/mL
same,"Saturated solubility, Expt 1-3","[4]; EtOH:Water 50:50 w/w, single experiments",0.333 mg/mL and 0.324 mg/mL
same,"Saturated solubility, Expt 1-3","[4]; EtOH:Water 60:40 w/w, single experiments",1.063 mg/mL and 1.009 mg/mL
same,"Saturated solubility, Expt 1-3","[4]; EtOH:Water 70:30 w/w, single experiments",2.698 mg/mL and 2.623 mg/mL
same,solubility,"[4]; ethanol/water 40:60 w/w co-solvent system, EtOH:Water 40:60 w/w, n=3, read-out: Saturated solubility, Average concentration ± SD",0.0747 ± 0.0011 mg/mL
same,solubility,"[4]; ethanol/water 40:60 w/w co-solvent system, EtOH:Water 40:60 w/w, single experiments, read-out: Saturated solubility, Expt 1-3",0.0748 mg/mL
same,solubility,"[4]; ethanol/water 50:50 w/w co-solvent system, EtOH:Water 50:50 w/w, n=3, read-out: Saturated solubility, Average concentration ± SD",0.335 ± 0.015 mg/mL
same,solubility,"[4]; ethanol/water 50:50 w/w co-solvent system, EtOH:Water 50:50 w/w, single experiments, read-out: Saturated solubility, Expt 1-3",0.35 mg/mL
same,solubility,"[4]; ethanol/water 60:40 w/w co-solvent system, EtOH:Water 60:40 w/w, n=3, read-out: Saturated solubility, Average concentration ± SD",1.05 ± 0.037 mg/mL
same,solubility,"[4]; ethanol/water 60:40 w/w co-solvent system, EtOH:Water 60:40 w/w, single experiments, read-out: Saturated solubility, Expt 1-3",1.09 mg/mL
same,solubility,"[4]; ethanol/water 70:30 w/w co-solvent system, EtOH:Water 70:30 w/w, n=3, read-out: Saturated solubility, Average concentration ± SD",2.73 ± 0.124 mg/mL
same,solubility,"[4]; ethanol/water 70:30 w/w co-solvent system, EtOH:Water 70:30 w/w, single experiments, read-out: Saturated solubility, Expt 1-3",2.86 mg/mL
same,"cumulative permeation, Mean (±SD)",[2]; [7],3.38 μg/cm^2
same,"cumulative permeation, single cells",[2]; [7],3.38 μg/cm^2
same,"cumulative permeation, Mean (±SD)","[2]; 9 h, saturated solution of the drug in 70:30 w/w ethanol-water, — not defined here (Table 2: below LOD)",1.53 ± 2.6 μg/cm^2
same,"cumulative permeation, Mean (±SD)","[2]; 20 h, saturated solution of the drug in 70:30 w/w ethanol-water",3.89 ± 3.2 μg/cm^2
